“And” between values parts separate entries of the source, which are not always exact repeats. Equal values may be shown once.
Tests used:
[1] = system: subjects with dIBS; experiment: Study of rifaximin BID in subjects with dIBS: adequate relief of IBS symptoms and bloating; assay type: in vivo, human; conditions: for Percentage of Subjects with Adequate Relief of Bloating Symptom / Percentage of Subjects with Adequate Relief of IBS Symptoms: RFX 550 mg BID 14 days, N = 191, ITT, at least two of the final three weeks of treatment phase (Weeks 1 to 4); for Adequate Relief of Bloating, Post Treatment: Failures / Adequate Relief of Bloating, Post Treatment: Success / Adequate Relief of Bloating, Post Treatment: Failure: RFX 550 2 w (N = 54); for Patients with adequate relief of bloating / Patients with adequate relief of global IBS symptoms: rifaximin 550 mg twice daily 14 days
Method: This example relates to a study of rifaximin in subjects with dIBS. […] There were two measures of efficacy assessed. Subjects were questioned on the relief of overall IBS symptoms and bloating. […] The analyses defined success as a “yes” response to questions regarding adequate relief.
All subpopulations in the study responded to therapy. Baseline severity was determined using 7-point Lickert scales during screening for Abdominal Pain/Discomfort and Bloating, and the number, type (normal, hard, loose) and urgency of bowel movements.
Duration of effect was assessed in a follow-up period. Subjects that responded in the 4 week treatment period were followed for an additional 3 months.
The effect of treatment on the percentage of subjects who reported adequate relief of IBS and bloating symptoms for at least two of the final three weeks during the treatment phase (Weeks 1 to 4) is shown in Tables 3-5 and FIGS. 4-6 below.
Two measures of efficacy were assessed independently. The first was the proportion of subjects who provided a ‘yes’ response to the weekly SGA question: “In the past 7 days, have you had adequate relief of your IBS symptoms? (yes/no)”. The second endpoint was the proportion of subjects who provide a ‘yes’ response to the weekly individual symptom question: “In the past 7 days, have you had adequate relief of your symptom of bloating? (yes/no)”. Durability was based on the proportion of subjects that had adequate relief over the entire treatment phase.
It is reported herein that the severity of baseline symptoms of abdominal pain and bloating influenced the response to rifaximin treatment. The co-primary endpoints in this analysis assessed weekly yes/no responses to questions regarding adequate relief of global IBS symptoms and IBS-associated bloating. Severity of baseline IBS symptoms was evaluated as a potential confounder of clinical response and was categorized as mild/moderate or severe based on a mean score of ≤4 vs. >4 (on a 7-point scale) for bloating and abdominal pain.
The Weekly yes/no responses to questions regarding adequate relief of global IBS symptoms and IBS-associated bloating were assessed. Clinical response was defined as adequate relief for 2 of the final 3 treatment weeks (wk 2, 3, or 4). Severity of baseline IBS symptoms was evaluated as a potential confounder of clinical response and was categorized as mild/moderate or severe based on a mean score of ≤4 versus >4 (on a 7-point scale (0=not bothersome; 6=very bothersome)) for bloating and abdominal pain.

[2] = Rifaximin exposure in subjects having IBS; assay type: in vivo, human
[3] = RFX 550 mg BID vs placebo, ITT, listed as RFX
[4] = RFX 550 mg BID, responders followed through week 16
[5] = patients with mild/moderate abdominal pain at baseline
[6] = patients with mild/moderate bloating at baseline

Substance: (2S,16Z,18E,20S,21S,22R, 23R,24R,25S,26S,27S,28E)-5,6,21,23,25 Pentahydroxy-27-methoxy -2,4,11,16,20,22,24,26-octamethyl-2,7-(epoxypentadeca-(1,11,13)trienimino)benzofuro (4,5-e) pyrido(1,2,-a) benzimidazole-1,15(2H)-dione,25-acetate [Rifaximin]
- odds ratio, Adequate Relief of Bloating at the End of the Treatment Phase ([1]; Male, RFX 550 2 w vs. PBO): Comparison of RFX 550 2 w vs. PBO p-value: 0.0802, odds ratio: 2.148 (0.912, 5.057)
- odds ratio, Adequate Relief of IBS Symptoms at the End of the Treatment Phase ([1]; Male, RFX 550 2 w vs. PBO): Comparison of RFX 550 2 w vs. PBO p-value: 0.0326, odds ratio: 2.511 (1.079, 5.842)
- Adequate Relief of Bloating at the End of the Treatment Phase: Failure ([1]; Male, RFX 550 4 w (N = 98)): 16 (72.7%) n (%)
- Adequate Relief of Bloating at the End of the Treatment Phase: Success ([1]; Male, RFX 550 4 w (N = 98)): 6 (27.3%) n (%)
- Adequate Relief of IBS Symptoms at the End of the Treatment Phase: Failure ([1]; Male, RFX 550 4 w (N = 98)): 15 (68.2%) n (%)
- Adequate Relief of IBS Symptoms at the End of the Treatment Phase: Success ([1]; Male, RFX 550 4 w (N = 98)): 7 (31.8%) n (%)
- Percentage of Subjects with Adequate Relief of Bloating Symptom [1]: 46%
- Percentage of Subjects with Adequate Relief of IBS Symptoms [1]: 52%
- Percentage of Subjects with Adequate Relief of Bloating Symptom ([1]; listed as RFX): 46.1%
- Percentage of Subjects with Adequate Relief of IBS Symptoms ([1]; listed as RFX): 52.4%
- Odds Ratio Estimate, Number of Weeks with Adequate Relief of Bloating Symptoms ([1]; RFX 550 mg BID vs placebo, ITT): 1.57
- Odds Ratio Estimate, Number of Weeks with Adequate Relief of IBS Symptoms ([1]; RFX 550 mg BID vs placebo, ITT): 1.54
- Odds Ratio Estimate, Adequate Relief of Bloating Symptom [1, 3]: 1.6 and 1.58
- Odds Ratio Estimate, Adequate Relief of IBS Symptoms [1, 3]: 1.6
- Adequate relief of IBS symptoms during post-treatment follow-up [1, 4]: 62.3%
- Adequate relief of the symptom of bloating during post-treatment follow-up [1, 4]: 59.3%
- Adequate Relief of Bloating, Post Treatment: Failures ([1]; Week 6): 5 (9.3%) n (%)
- Adequate Relief of Bloating, Post Treatment: Success ([1]; Week 6): 49 (90.7%) n (%)
- odds ratio, Adequate Relief of Bloating, Post Treatment ([1]; Week 6, RFX 550 2 w vs. PBO): Comparison of RFX 550 2 w vs. PBO p-value: 0.1303, odds ratio: 3.840
- Adequate Relief of Bloating, Post Treatment: Failures ([1]; Week 7): 9 (16.7%) n (%)
- Adequate Relief of Bloating, Post Treatment: Success ([1]; Week 7): 45 (83.3%) n (%)
- odds ratio, Adequate Relief of Bloating, Post Treatment ([1]; Week 7, RFX 550 2 w vs. PBO): Comparison of RFX 550 2 w vs. PBO p-value: 0.1311, odds ratio: 2.931
- Adequate Relief of Bloating, Post Treatment: Failures ([1]; Week 8): 7 (13.0%) n (%)
- Adequate Relief of Bloating, Post Treatment: Success ([1]; Week 8): 47 (87.0%) n (%)
- odds ratio, Adequate Relief of Bloating, Post Treatment ([1]; Week 8, RFX 550 2 w vs. PBO): Comparison of RFX 550 2 w vs. PBO p-value: 0.2858, odds ratio: 2.107
- Adequate Relief of Bloating, Post Treatment: Failures ([1]; Week 9): 15 (27.8%) n (%)
- Adequate Relief of Bloating, Post Treatment: Success ([1]; Week 9): 39 (72.2%) n (%)
- odds ratio, Adequate Relief of Bloating, Post Treatment ([1]; Week 9, RFX 550 2 w vs. PBO): Comparison of RFX 550 2 w vs. PBO p-value: 0.0814, odds ratio: 2.737
- Adequate Relief of Bloating, Post Treatment: Failures ([1]; Week 10): 15 (27.8%) n (%)
- Adequate Relief of Bloating, Post Treatment: Success ([1]; Week 10): 39 (72.2%) n (%)
- odds ratio, Adequate Relief of Bloating, Post Treatment ([1]; Week 10, RFX 550 2 w vs. PBO): Comparison of RFX 550 2 w vs. PBO p-value: 0.0217, odds ratio: 3.828
- Adequate Relief of Bloating, Post Treatment: Failures ([1]; Week 11): 19 (35.2%) n (%)
- Adequate Relief of Bloating, Post Treatment: Success ([1]; Week 11): 35 (64.8%) n (%)
- odds ratio, Adequate Relief of Bloating, Post Treatment ([1]; Week 11, RFX 550 2 w vs. PBO): Comparison of RFX 550 2 w vs. PBO p-value: 0.0398, odds ratio: 3.115
- Adequate Relief of Bloating, Post Treatment: Failure ([1]; Week 12): 18 (33.3%) n (%)
- Adequate Relief of Bloating, Post Treatment: Success ([1]; Week 12): 36 (66.7%) n (%)
- odds ratio, Adequate Relief of Bloating, Post Treatment ([1]; Week 12, RFX 550 2 w vs. PBO): Comparison of RFX 550 2 w vs. PBO p-value: 0.0596, odds ratio: 2.891
- Adequate Relief of Bloating, Post Treatment: Failure ([1]; Week 13): 21 (38.9%) n (%)
- Adequate Relief of Bloating, Post Treatment: Success ([1]; Week 13): 33 (61.1%) n (%)
- odds ratio, Adequate Relief of Bloating, Post Treatment ([1]; Week 13, RFX 550 2 w vs. PBO): Comparison of RFX 550 2 w vs. PBO p-value: 0.0142, odds ratio: 4.187
- Adequate Relief of Bloating, Post Treatment: Failure ([1]; Week 14): 20 (37.0%) n (%)
- Adequate Relief of Bloating, Post Treatment: Success ([1]; Week 14): 34 (63.0%) n (%)
- odds ratio, Adequate Relief of Bloating, Post Treatment ([1]; Week 14, RFX 550 2 w vs. PBO): Comparison of RFX 550 2 w vs. PBO p-value: 0.0121, odds ratio: 4.230
- Adequate Relief of Bloating, Post Treatment: Failure ([1]; Week 15): 23 (42.6%) n (%)
- Adequate Relief of Bloating, Post Treatment: Success ([1]; Week 15): 31 (57.4%) n (%)
- odds ratio, Adequate Relief of Bloating, Post Treatment ([1]; Week 15, RFX 550 2 w vs. PBO): Comparison of RFX 550 2 w vs. PBO p-value: 0.0391, odds ratio: 3.323
- Adequate Relief of Bloating, Post Treatment: Failure ([1]; Week 16): 22 (40.7%) n (%)
- Adequate Relief of Bloating, Post Treatment: Success ([1]; Week 16): 32 (59.3%) n (%)
- odds ratio, Adequate Relief of Bloating, Post Treatment ([1]; Week 16, RFX 550 2 w vs. PBO): Comparison of RFX 550 2 w vs. PBO p-value: 0.0212, odds ratio: 3.700
- Treatment effect (Bloating) ([1]; dIBS Type: aIBS): 31.4%*, 31.4%
- Treatment effect (IBS Sx) ([1]; dIBS Type: aIBS): 31.4%*, 31.4%
- Treatment effect (Bloating) ([1]; dIBS Type: dIBS only): 4.5%
- Treatment effect (IBS Sx) ([1]; dIBS Type: dIBS only): 6.3%
- Patients with adequate relief of bloating [1, 5]: 44%
- Patients with adequate relief of global IBS symptoms [1, 5]: 50%
- Patients with adequate relief of bloating [1, 6]: 47%
- Patients with adequate relief of global IBS symptoms [1, 6]: 56%
- Rifaximin exposure, fold lower than neomycin exposure [2]: more than 66 fold
- Rifaximin exposure, fold lower than rifampin exposure [2]: more than 520 fold
